Experimental data taken from patent US20090149436A1, “CASPASE INHIBITOR” (Astellas Pharma Inc., priority 2004, published 2009).
pIC50: −log10 of the molar value. Where two headings read alike, the source gives them in different places.

What was measured:
Format in all cases: biochemical
[1] = target: T1, human recombinant caspase 3 (Homo sapiens, UniProt P42574); assay: Assay of inhibitory activity against human recombinant caspase 3 (fluorogenic substrate Ac-DEVD-MCA); conditions: for specificity of the enzyme inhibitory activity (in words): caspase 3 versus cathepsins and trypsin
T1 construct: purchased CALBIOCHEM 235417
T1 sequence (P42574 29-175 limits assumed): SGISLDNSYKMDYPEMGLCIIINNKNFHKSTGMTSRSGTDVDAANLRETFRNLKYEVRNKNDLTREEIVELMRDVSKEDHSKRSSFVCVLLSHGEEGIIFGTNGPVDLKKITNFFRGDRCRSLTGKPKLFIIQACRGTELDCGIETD
T1 sequence (P42574 176-277 limits assumed): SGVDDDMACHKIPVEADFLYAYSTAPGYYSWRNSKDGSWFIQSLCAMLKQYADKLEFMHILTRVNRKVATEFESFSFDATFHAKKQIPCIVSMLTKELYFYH
Protocol: A reaction buffer containing 10% sucrose, 0.1% CHAPS, 2 mM dithiothreitol in 25 mM HEPES (pH 7.5) is prepared. […] Thereto is added 25 μl of human recombinant caspase 3 (CALBIOCHEM catalog No. 235417), 500 U/ml, to start the reaction. After incubation at room temperature for 2 hr. the reaction quench buffer (0.1 M monochloroacetic acids 0.03 M sodium acetate, 0.15 M acetic acid (pH 4.3)) is added by 100 μl per well. The fluorescence of 7-amino-4-methylcoumarin ([…]) released by the enzyme reaction is measured using a fluorophotometer (Ex. 355 nm, Em. 460 nm).
The compounds of the above-mentioned 1. were examined for the activity inhibitory action on human recombinant caspase 3.

cathepsin L = cathepsin L (Homo sapiens, UniProt P07711); assay: Enzyme specificity assay, cathepsin L (substrate Z-Phe-Arg-MNA); conditions: FIG. 2; phosphate buffer pH 5.5
Sequence of cathepsin L (P07711 114-333, species assumed): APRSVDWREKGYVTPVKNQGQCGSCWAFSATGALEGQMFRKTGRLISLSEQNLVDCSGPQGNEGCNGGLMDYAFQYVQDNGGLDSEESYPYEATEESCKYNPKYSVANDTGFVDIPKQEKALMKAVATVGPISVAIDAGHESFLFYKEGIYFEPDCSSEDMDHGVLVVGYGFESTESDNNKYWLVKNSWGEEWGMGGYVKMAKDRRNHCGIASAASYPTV
Protocol: (§1) The above-mentioned compound was assayed for the inhibitory activity using […], cathepsin L and trypsin as enzymes other than caspase 3 and by an assay method similar to the above-mentioned Example 1 using phosphate buffer, pH 5.5 (100 mM NaCl, 5-mM DTT, 4 mM EDTA) as a buffer, Z-Arg-Arg-MNA as a substrate for […], Z-Phe-Arg-MNA as a substrate for cathepsin L, and Boc-Phe-Ser-Arg-MCA as a substrate for trypsin.

cathepsin B = cathepsin B (Homo sapiens, UniProt P07858); assay: Enzyme specificity assay, cathepsin B (substrate Z-Arg-Arg-MNA); conditions: FIG. 2; phosphate buffer pH 5.5
Protocol: as §1

trypsin = target: T2, trypsin (Bos taurus, UniProt P00760); assay: Enzyme specificity assay, trypsin (substrate Boc-Phe-Ser-Arg-MCA); conditions: FIG. 2; phosphate buffer pH 5.5
T2 construct: gene PRSS1
T2 sequence (P00760 24-246): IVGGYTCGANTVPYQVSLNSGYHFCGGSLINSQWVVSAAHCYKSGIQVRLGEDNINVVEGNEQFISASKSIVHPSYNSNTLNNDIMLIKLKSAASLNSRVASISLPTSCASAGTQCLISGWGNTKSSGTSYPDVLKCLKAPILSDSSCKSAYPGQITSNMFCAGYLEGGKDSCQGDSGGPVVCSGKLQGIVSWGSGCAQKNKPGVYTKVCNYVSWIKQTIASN
Protocol: as §1

[2] = FIG. 1 lower panel, read-out: IC50, inhibitory activity against human recombinant caspase 3
[3] = FIG. 1 upper panel, read-out: IC50, inhibitory activity against human recombinant caspase 3

pIC50 [1, 2]	pIC50 [1, 3]	Molecule	pIC50 (cathepsin L)	pIC50 (cathepsin B)	pIC50 (trypsin)	specificity of the enzyme inhibitory activity (in words) ([1]; FIG. 2)	caspase 3 inhibitory activity (in words) ([1]; FIG. 1, compared with DEVD, standard product)	pIC50 ([1]; FIG. 2, read-out: IC50, caspase (Enzyme Specificity))	Inhibitory mode against human recombinant caspase 3 (Lineweaver-Burk plot) ([1]; FIG. 3, different substrate concentrations (2, 4, 6 and 8 nM))
5.75	5.68	cyanocobalamin [reference compound]	–	–	–	–	–	–	–
–	7.88	C=CC1=C(C)c2cc3[n-]c(cc4nc(cc5[n-]c(cc1n2)c(C)c5CCC(=O)[O-])C(CCC(=O)[O-])=C4C)c(C)c3C=C.[Co+2].[H+].[H+] [cobalt protoporphyrin]	–	–	–	–	–	–	–
–	–	CC(=O)N[C@@H](CC(=O)O)C(=O)N[C@@H](CCC(=O)O)C(=O)N[C@H](C(=O)N[C@H](C=O)CC(=O)O)C(C)C [DEVD, acetyl-L-aspartyl-L-glutamyl-L-valyl-L-aspart-1-al, reference compound]	4.76	6.17	< 4.00	strongest inhibitory activity against caspase 3	–	–	–
7.04	–	cyanoimidazolylcobamide	–	–	–	–	–	–	–

Molecule	pIC50 [1, 2]	pIC50 [1, 3]	pIC50 (cathepsin L)	pIC50 (cathepsin B)	pIC50 (trypsin)	specificity of the enzyme inhibitory activity (in words) ([1]; FIG. 2)	caspase 3 inhibitory activity (in words) ([1]; FIG. 1, compared with DEVD, standard product)	pIC50 ([1]; FIG. 2, read-out: IC50, caspase (Enzyme Specificity))	Inhibitory mode against human recombinant caspase 3 (Lineweaver-Burk plot) ([1]; FIG. 3, different substrate concentrations (2, 4, 6 and 8 nM))
C/C1=C2/[N-]C([C@H](CC(N)=O)[C@@]2(C)CCC(=O)NCC(C)O)[C@]2(C)N=C(/C(C)=C3N=C(/C=C4N=C1[C@@H](CCC(N)=O)C\4(C)C)[C@@H](CCC(N)=O)[C@]\3(C)CC(N)=O)[C@@H](CCC(N)=O)[C@]2(C)CC(N)=O.[C-]#N.[C-]#N.[Co] (some centres unmarked) [dicyanocobinamide]	9.85	9.55	8.21	6.99	< 5.30	strongest inhibitory activity against caspase 3	far stronger than the inhibitory activity of DEVD	9.55	competitively inhibits the substrate for caspase 3
